Experimental data published in patent publication US10010585B2, “Methods of treating vestibular schwannoma and reducing hearing or neurite loss caused by vestibular schwannoma” (Massachusetts Eye and Ear Infirmary, priority 2014, dated 2018).
Values joined by “and” are separate entries in the source; they are usually repeats but may differ in a detail not shown here. Equal entries are not always repeated.

Key:
[1] = test system: primary VS cells; test: BrdU proliferation assay in primary VS cultures; format: cell-based, human; details: 48 hours
Method: Proliferation rate of 12 VS cultures was assessed and correlated with the tumor volume in the latest gadolinium enhanced T1-weighted MRI scan prior to surgical resection, and with tumor growth in vivo, measured as changes in the tumor's volume over time calculated from serial MRI scans. Tumor growth was standardized by dividing the growth rate by the initial tumor volume. Separate analyses were performed for solid tumors, which generally account for approximately 96% of VSs (Charabi et al., 1994), versus all studied tumors, which included 4 out of 13 total tumors with a visible cystic component, because cystic components could misrepresent true tumor volume (Charabi et al., 1994). To determine the level of cell proliferation in the cultures, Bromodeoxyuridine (BrdU) was added to the cells at a concentration of 10 μg/ml 20 hours before the cells were fixed. The cells were kept in the dark after the addition of BrdU Immunofluorescence protocol was followed as described under ‘Immunofluorescence,’ and cell and nuclear membranes were permeablized by incubation in 1% Triton-X for 10 minutes and by incubation in 2N Hydrochloric acid for 20 minutes, respectively, after fixation. Primary antibody against BrdU (AbD Serotec, NC, 1:200) and anti-rat IgG (Life Technologies, NY, 1:1000) were used. BrdU- and Hoechst-stained nuclei were counted in 3-5 fields and the ratio of BrdU positive to Hoechst positive nuclei was used to determine the proliferation rate in vitro. […]
(§1) Cultured human primary VS cells, primary SCs and HEI-193 cells were treated with NF-κB inhibitors BAY11-7082 (BAY11) or curcumin for 48 hours (Santa Cruz Biotechnology). BAY11 or curcumin, diluted in 100% DMSO, were mixed to the accurate concentrations in warmed media and applied to the cultures (with DMSO concentration in media being 1% maximum), alongside a no-treatment control receiving media alone with appropriate corresponding DMSO levels. Experiments were performed in media fortified with antibiotics and serum (same formulation as described in Example 1 for culturing cells).
(§2) After 48 hours of treatment, primary VS and Schwann cultures were fixed for BrdU staining, to visualize proliferation, or TUNEL staining, to visualize cell death. The same methodology as described in Example 1 was utilized. Cleaved caspase 3 staining, another apoptosis marker to reinforce findings using TUNEL, was conducted using an antibody against cleaved caspase 3 following the ‘immunofluorescence’ protocol outlined in Example 1.
(§3) The cultures were incubated with the drugs for 48 hours. To label proliferating cells, BrdU was added 20 hours before fixation. pH was measured in the media after drug addition to ensure no significant deviations.
(§4) After 48 hours of treatment with salicylates, primary VS and SC cultures were fixed for BrdU staining, to visualize proliferation, or TUNEL staining, to visualize cell death. The same methodology as described in Example 1 was utilized.
To understand cross-talk between HGF and VEGF-A pathway, cultured VS cells were incubated with Life Technologies silencer select siRNAs targeting VEGFA (s461) or MET (s8700). To understand whether HGF signaling contributed to VS proliferation, cultured VS cells were treated with MET inhibitor SU11274 (Sigma-Aldrich, MO, #S9820). Seventy-two hours after siRNA treatment or 12 hours after treatment with SU11274 (2 μM), cells were incubated with 10 μg/mL BrdU (Life Technologies, NY, # B23151) for 20 hours before fixation.

[2] = test system: sporadic VS; details: retrospective study, serial MRI scans (Kandathil et al., 2014); cited from earlier work
[3] = test system: primary VS cells; test: TUNEL cell death assay in primary VS cultures; format: cell-based, human; details: 48 hours
Method: Rate of apoptosis in 6 VS cultures was assessed and correlated with tumor growth in vivo and tumor volume. […] Apoptosis was measured using terminal deoxynucleotidyl transferase dUTP nick end labeling (TUNEL, Roche Applied Sciences, NY) following manufacturer's instructions. Briefly, immunofluorescence protocol was followed as described under ‘Immunofluorescence,’ until fixations, then the cells were washed with PBS thrice and incubated in 1% Triton-X for 10 minutes on shaker. The cells were washed with PBS once and incubated in TUNEL mix for 1 hour at 37° C., then for 30 minutes at RT on shaker. The cells were then incubated in rhodamine phalloidin (Life Technologies, NY, 1:40) and Hoechst stain for 20 minutes, washed with PBS thrice and mounted onto slides for imaging. TUNEL and Hoechst stained nuclei were counted in >3 fields and the ratio of TUNEL positive to Hoechst positive nuclei was used to determine apoptosis rate in vitro. A positive control of 10 minutes-DNAse (Roche Applied Sciences, NY) treatment prior to TUNEL labeling was utilized.
For siRNA treatment, cultured primary VS cells or HEI-193 cells were placed in antibiotic and serum free media overnight. The next day, the cells were incubated with Life Technologies siRNAs targeting NF-κB genes RELA and NF-κB1, with control cells being treated with vehicle only (Lipofectamine RNAiMax), for 5 days. Some cultures were also incubated with a fluorescent random Oligo (Life Technologies) along with vehicle to assess transfection efficiency. siRNA experiments were performed in antibiotic and serum free media.
BAY11 or curcumin, diluted in 100% DMSO, were mixed to the accurate concentrations in warmed media and applied to the cultures (with DMSO concentration in media being 1% maximum), alongside a no-treatment control receiving media alone with appropriate corresponding DMSO levels.
After 48 hours of treatment, primary VS and Schwann cultures were fixed for BrdU staining, to visualize proliferation, or TUNEL staining, to visualize cell death.
After 48 hours of treatment with salicylates, primary VS and SC cultures were fixed for BrdU staining, to visualize proliferation, or TUNEL staining, to visualize cell death.

[4] = test system: primary SCs; test: BrdU proliferation assay in primary Schwann cell cultures; format: cell-based, human; details: 48 hours
Method: Proliferation rate of 12 VS cultures was assessed and correlated with the tumor volume in the latest gadolinium enhanced T1-weighted MRI scan prior to surgical resection, and with tumor growth in vivo, measured as changes in the tumor's volume over time calculated from serial MRI scans. Tumor growth was standardized by dividing the growth rate by the initial tumor volume. Separate analyses were performed for solid tumors, which generally account for approximately 96% of VSs (Charabi et al., 1994), versus all studied tumors, which included 4 out of 13 total tumors with a visible cystic component, because cystic components could misrepresent true tumor volume (Charabi et al., 1994). To determine the level of cell proliferation in the cultures, Bromodeoxyuridine (BrdU) was added to the cells at a concentration of 10 μg/ml 20 hours before the cells were fixed. The cells were kept in the dark after the addition of BrdU Immunofluorescence protocol was followed as described under ‘Immunofluorescence,’ and cell and nuclear membranes were permeablized by incubation in 1% Triton-X for 10 minutes and by incubation in 2N Hydrochloric acid for 20 minutes, respectively, after fixation. Primary antibody against BrdU (AbD Serotec, NC, 1:200) and anti-rat IgG (Life Technologies, NY, 1:1000) were used. BrdU- and Hoechst-stained nuclei were counted in 3-5 fields and the ratio of BrdU positive to Hoechst positive nuclei was used to determine the proliferation rate in vitro.
as §1, §2, §3, §4

[5] = test system: COX-2; details: 5 mM, 48 hours, VS culture media
Method: Prostaglandin (PTG) E2 was assayed in the media of VS cultures using the Prostaglandin E2 Parameter Assay Kit (R&D Systems, KGE004B). The media was collected after 48 hours of treatment from non-treated and treated cultured cells. Manufacturer's instructions were closely followed.
as §3

[6] = test system: cochlear explant cultures (hair cells and neurites); test: Murine cochlear explant culture, hair cell, neurite and fiber damage counts; format: cell-based, CBA/CaJ mice; details: recombinant human protein 5 μg/mL, 48 hours; for severity of fiber disorganization / damage: scale 0 to 2
Text: To develop an animal model to study hearing loss due to VS, cochlear explant cultures were established from postnatal CBA/CaJ mice aged P3-P5 (Jackson Laboratory, ME). Briefly, after decapitating the mouse, temporal bones were dissected from the skull in Hank's Balanced Salt Solution (Life Technologies, NY). The otic capsule encasing the cochlea was dissected out from each temporal bone. The otic capsule was carefully stripped away and the spiral ligament was peeled away from the entire cochlea, starting from the base. The basal turn of cochlea was then isolated using the dissecting knife (Fine Science Tools, CA), discarding the apical turn hook region. The tectorial membrane and the Reissner's membrane were removed, leaving the organ of Corti intact with the spiral ganglion neuron region. This explant was cultured onto a 10 mm glass coverslip coated with CellTak (BD Biosciences, CA, #354241) in a 35 mm culture dish with 4 wells. Cells were cultured in 98% DMEM, 1% ampicillin and 1% N2 supplement.
To assess FGF2's otoprotective effect, cochlear explant cultures were treated with recombinant human FGF2±gentamicin. After culturing the explants overnight, media fortified with FGF2 (100 ng/mL) was applied. Twenty-four hours later media fortified with gentamicin (1 mM) and FGF2 (100 ng/mL) was applied. […] Cochlear explants were fixed after an additional 24 hours of treatment, with total time being 48 hours.
After treatment, the explants were fixed and stained with antibodies against myosin 7A (Myo7A, Proteus Biosciences, CA) and β-tubulin (Tuj1, Covance, MA) to identify hair cells (HCs) and neurons, respectively. The same immunofluorescence protocol as described in Example 1 was used, with the exceptions of omission of […] HCl incubation, usage of 5% NHS with 1% Triton-X for blocking solution and 1% NHS with 0.4% Triton-X solution for primary antibody incubation at room temperature (RT). Secondary antibodies (Alexa Flour 555 anti-mouse and Alexa Four 488 anti-rabbit) were purchased from Life Technologies. Cochlear explants were imaged using a Leica TCS SP5 Confocal microscope. Zoomed-in pictures for the region of organ of Corti, including neurites, were merged in a z-stack to obtain a z-axis projection image in the Leica software. The number of hair cells (HCs) and neurites were manually counted per 100 μm length along the cochlea, with 1-2 samplings per specimen.
The same general methodology for murine cochlear explant cultures as described in Example 5 was utilized. Cochlear explant cultures were established from P2-P3 mice. Importantly, instead of only culturing the basal turn, the apical turn was also isolated, providing two pieces per cochlea with a greater frequency range. After approximately 12 hours, the cochlear explant cultures were treated for 48 hours with tumor secretions diluted to half their concentration. The formulation was 46.5% tumor-conditioned DMEM, 46.5% plain DMEM, 5% FBS, 1% ampicillin and 1% N2 supplement. Cochlear explants were treated with control media in parallel, being 46.5% DMEM incubated without tumor, 46.5% plain DMEM, 5% FBS, 1% ampicillin and 1% N2 supplement. All reagents were purchased from Life Technologies, NY. Osmolality in the solutions was measured in samples using a vapor-pressure osmometer (standardized with 290 mOsm/kg of 0.1567M sodium chloride solution) before applying them onto cochlear explants. Extra formulation for each VS secretion was made to be tested on Milliplex arrays and ELISA. Milliplex array, containing FGF2, VEGF-A and HGF beads (Millipore) and human TNFα ELISA (R&D Systems) were conducted as directed by the manufacturer on VS secretions prior to being applied onto the cochlear explant cultures.
Cochlear explants were fixed 48 hours after treatment and the same methodology for VS secretion application as described in Example 5 was utilized. […]

[7] = test system: HGF; test: Mouse HGF ELISA on cochlear explants; format: cell-based; details: recombinant human protein 5 μg/mL, 48 hours; control 48.1±17.0
Method: Recombinant human VEGF-A (R&D Systems), diluted in culture media to a 5 μg/mL concentration, was applied to cochlear explants for 48 hours. The explants were fixed and the same protocol as outlined previously was followed (Example 6). […] Plain media with neutralization VEGF-A antibody and VS secretions incubated with only goat IgGs (R&D Systems, MN) were prepared simultaneously as controls. Success of VEGF-A neutralization was confirmed using ELISA.
Human VEGF-A ELISA and mouse HGF ELISA kits were purchased from R&D systems and manufacturer's protocols were followed.

| Compound | proliferation, of the NT cells ([1]; 1 mM) [%] | proliferation, of the NT cells ([1]; 5 mM) | probability of VS growth in comparison to VS patients not taking aspirin [2] | cell death rate ([3]; 1 mM) [%] | cell death rate ([3]; 5 mM) [%] | normalized proliferation rate, of the NT cells ([4]; 1 mM) [%] | proliferation, of the NT cells ([4]; 5 mM) [%] | secreted PTG levels, of NT cells [5] [%] | number of IHCs per 100 μm length ([6]; apical turn) [per 100 μm] | number of OHCs ([6]; apical turn) [per 100 μm] | number of neurites ([6]; apical turn) [per 100 μm] | severity of fiber disorganization / damage ([6]; apical turn) | number of IHCs per 100 μm length ([6]; basal turn) [per 100 μm] | number of OHCs ([6]; basal turn) [per 100 μm] | number of neurites ([6]; basal turn) [per 100 μm] | severity of fiber disorganization / damage ([6]; basal turn) | secreted HGF levels in cochlear explants [7] |
| --- | --- | --- | --- | --- | --- | --- | --- | --- | --- | --- | --- | --- | --- | --- | --- | --- | --- |
| CC(=O)Oc1ccccc1C(=O)O [aspirin] | 129.6±26.2 | 19% and 19.3±5.5% | approximately half | 0.6±0.3 | 2.8±2.2 | 124.4±72.9 | 198.1±141.3 | 3.1 |  |  |  |  |  |  |  |  |  |
| TNFα |  |  |  |  |  |  |  |  | 13.2±1.0 | 39.1±2.2 | 14.3±2.9 | 0.2±0.5 | 12.1±2.8 | 31.8±14.9 | 11.3±2.4 | 0.8±0.4 | did not lead to changes |
